We go through 3 compounds from article PMC8312697, “Mechanistic Investigations Support Liver Safety of Ubrogepant” (Toxicological Sciences, 2020).

The structures appear in SMILES notation. Where two headings read alike, the source gives them in different places.

The subject of data set [1] is mouse. Nature of the data set: Conventional nonclinical toxicology study, mouse.
Data set [2] relates to monkeys. Briefly: Conventional nonclinical toxicology study, NHP. Particulars: 9M NHP. On the procedure: Conventional animal toxicology studies in rats and monkeys were performed by Merck & Co, Inc (West Point, Pennsylvania).
Data set [3] has as its target T1, MRP3 (Homo sapiens, UniProt O15438).
T1 construct: Solvo Biotechnology (Szeged, Hungary), contract laboratory that ran the assay
Briefly: MRP3 vesicular transport inhibition assay. The class given is biochemical. Particulars: for inhibition of MRP3-mediated probe substrate transport: vesicular transport inhibition assay. On the procedure: To assess the functional impact of ubrogepant on the human ABC efflux transporters BSEP, MRP3, and MRP4, in vitro vesicular transport inhibition assays were conducted by Solvo Biotechnology (Szeged, Hungary). The ability of ubrogepant to inhibit the BSEP-mediated transport (and accumulation) of a probe substrate was tested at concentrations ranging from 0.04 – 30 μM, where the latter defined the upper limit of compound solubility in the BSEP assay buffer. For the MRP3 and MRP4 vesicle-based transporter assessments, ubrogepant concentrations of 0.1 to 70 μM were used. To assess the functional impact of ubrogepant on the human SLC (uptake) transporter NTCP, in vitro experiments were performed using HEK293 cells stably expressing NTCP. The ability of ubrogepant to inhibit NTCP-mediated uptake (and accumulation) of taurocholate was tested at concentrations ranging from 0.04 – 30 μM.
To assess the functional impact of MK-3207 on the human ABC efflux transporters BSEP, MRP3 and MRP4, in vitro vesicular transport inhibition assays were conducted by Solvo Biotechnology (Szeged, Hungary) and overseen by DSSI. BSEP transport was assessed in the presence of 0.5-30 µM MK-3207; MRP3 and MRP4 transport was assessed in the presence of 0.11-80 µM MK-3207. The upper limits of these ranges were determined by compound solubility in each assay buffer. NTCP transporter inhibition was assessed in NTCP-expressing HEK293 cells in the presence of 0.03 – 25 µM MK-3207.
IC50 values for MK-3207 were calculated for each of the transporters; these values were used as inputs into DILIsym. It was assumed that inhibition type for MK-3207 for MRP3 and MRP4 was mixed with α= 5; this is a typical value for bile acid transporter inhibitors in the experience of the DSS team.

Data set [4] concerns Nrf2 electrophilic stress and Nrf1 proteasomal stress pathways. Nature of the data set: In vivo rat liver gene expression bioactivation liver response assay (BA-LRA). Particulars: for maximum liver safe daily dose predicted from BA-LRA: human daily dose projected from rat BA-LRA score; for upregulation of pathways associated with electrophilic and proteasomal stress: rat liver gene expression studies; for BA-LRA score: also presented in Monroe et al., 2018. The text has this:
A prediction of a clinical daily dose burden associated with reactive metabolite-mediated DILI potential was derived from a focused and integrated quantitative rat liver molecular gene expression signature optimized predominantly for Nrf2 electrophilic stress and Nrf1 proteasomal stress pathways to describe a bioactivation liver response assay (BA-LRA) result. […] The clinical dose is identified that projects DILI risk to exceed the optimized threshold calculation for each BA-LRA result.

The nature of data set [5]: Clinical study exposures. The class given is in vivo, human.
Data set [6] relates to clinical trial participants. Also noted: cases of ALT or AST ≥ 3× ULN: unit not given here. Particulars: cited from earlier work.
The subject of data set [7] is HepG2 cells. Nature of the data set: Seahorse cellular respiration assay (OCR). The format is cell-based, human. On the procedure: Identical parallel cultures were established to test for an effect on cytotoxicity via cellular ATP content. […]. Importantly, the 1-hour culture was conducted in the absence of serum (i.e., no serum protein binding) as is standard for the Seahorse Analyzer assay conditions. However, the 24-hour culture was too long for robust cell culture in the absence of serum. Serum was present up to 1 hour before the assay, when cell culture media was exchanged for the standard assay media. Three independent studies were conducted in duplicate.
To assess the potential mitochondrial liabilities of ubrogepant, cellular respiration assays using a Seahorse XFe96 Flux Analyzer were conducted by Cyprotex (Macclesfield, UK). HepG2 cells were incubated with ubrogepant at concentrations ranging from 0.1 – 125 μM for 1 or 24 hours and tested for an effect on cellular respiration as measured by the oxygen consumption rate (OCR). Three independent studies were conducted in duplicate. Importantly, the 1-hour culture was conducted in the absence of serum (i.e., no serum protein binding) as is standard for the Seahorse Analyzer assay conditions. However, the 24-hour culture was too long for robust cell culture in the absence of serum. Serum was present up to 1 hour before the assay, when cell culture media was exchanged for the standard assay media. The measured OCR was corrected for the relative amounts of viable cells that contributed to the measured OCR, removing the possible interpretation of OCR reductions as being due to cell loss.
To assess the potential mitochondrial liabilities of MK-3207, cellular respiration assays using a Seahorse XFe96 Flux Analyzer were conducted by Cyprotex (Macclesfield, UK). HepG2 cells were incubated with MK-3207 at concentrations ranging from 0.01 – 75 μM for 1 or 24 hours and tested for an effect on cellular respiration as measured by the OCR. Three independent studies were conducted in duplicate. Importantly, the 1-hour culture was conducted in the absence of serum (i.e., no serum protein binding) as is standard for the Seahorse Analyzer assay conditions. However, the 24-hour culture was too long for robust cell culture in the absence of serum. Serum was present up to 1 hour before the assay, when cell culture media was exchanged for the standard assay media. Intracellular MK-3207 concentrations were also assessed in identical duplicate HepG2 cultures. The measured OCR was corrected for the relative amounts of viable cells that contributed to the measured OCR, removing the possible interpretation of OCR reductions as being due to cell loss; the process for this was the same as that described above for ubrogepant.

The test system of data set [8] is human hepatocytes. Nature of the data set: Covalent protein binding in human hepatocytes / reactive metabolite body burden. The format is in vitro ADME. Particulars: for Projected body burden from covalent-binding studies: covalent protein binding × dose, telcagepant 560 mg, MK-3207 80 mg, ubrogepant 200 mg; for covalent protein binding: radioactivity bound in human hepatocytes. On the procedure: The “body burden” is a quantitative estimate of reactive metabolite exposure that was determined for each drug based on in vitro covalent protein binding of radioactivity in human hepatocytes (in pmol equivalents/mg) multiplied by a clinically effective daily dose (in mg/day). Detailed methods used in the in vitro human hepatocyte covalent-binding experiments have been reported by [Nakayama et al. (2009)].

[9] abbreviates: curve fitting assuming maximum inhibition at higher concentrations is 100%, read-out: MRP3 estimated lowest possible IC50.
Setting [10] is: HepG2, 1-hour incubation, no serum.
The mark [11] stands for this setting: among the 5 patients with ALT > 3-fold ULN at > 500 mg daily, ref Hargreaves and Olesen, 2019, Hewitt et al., 2011.

T1 sequence (O15438 whole entry): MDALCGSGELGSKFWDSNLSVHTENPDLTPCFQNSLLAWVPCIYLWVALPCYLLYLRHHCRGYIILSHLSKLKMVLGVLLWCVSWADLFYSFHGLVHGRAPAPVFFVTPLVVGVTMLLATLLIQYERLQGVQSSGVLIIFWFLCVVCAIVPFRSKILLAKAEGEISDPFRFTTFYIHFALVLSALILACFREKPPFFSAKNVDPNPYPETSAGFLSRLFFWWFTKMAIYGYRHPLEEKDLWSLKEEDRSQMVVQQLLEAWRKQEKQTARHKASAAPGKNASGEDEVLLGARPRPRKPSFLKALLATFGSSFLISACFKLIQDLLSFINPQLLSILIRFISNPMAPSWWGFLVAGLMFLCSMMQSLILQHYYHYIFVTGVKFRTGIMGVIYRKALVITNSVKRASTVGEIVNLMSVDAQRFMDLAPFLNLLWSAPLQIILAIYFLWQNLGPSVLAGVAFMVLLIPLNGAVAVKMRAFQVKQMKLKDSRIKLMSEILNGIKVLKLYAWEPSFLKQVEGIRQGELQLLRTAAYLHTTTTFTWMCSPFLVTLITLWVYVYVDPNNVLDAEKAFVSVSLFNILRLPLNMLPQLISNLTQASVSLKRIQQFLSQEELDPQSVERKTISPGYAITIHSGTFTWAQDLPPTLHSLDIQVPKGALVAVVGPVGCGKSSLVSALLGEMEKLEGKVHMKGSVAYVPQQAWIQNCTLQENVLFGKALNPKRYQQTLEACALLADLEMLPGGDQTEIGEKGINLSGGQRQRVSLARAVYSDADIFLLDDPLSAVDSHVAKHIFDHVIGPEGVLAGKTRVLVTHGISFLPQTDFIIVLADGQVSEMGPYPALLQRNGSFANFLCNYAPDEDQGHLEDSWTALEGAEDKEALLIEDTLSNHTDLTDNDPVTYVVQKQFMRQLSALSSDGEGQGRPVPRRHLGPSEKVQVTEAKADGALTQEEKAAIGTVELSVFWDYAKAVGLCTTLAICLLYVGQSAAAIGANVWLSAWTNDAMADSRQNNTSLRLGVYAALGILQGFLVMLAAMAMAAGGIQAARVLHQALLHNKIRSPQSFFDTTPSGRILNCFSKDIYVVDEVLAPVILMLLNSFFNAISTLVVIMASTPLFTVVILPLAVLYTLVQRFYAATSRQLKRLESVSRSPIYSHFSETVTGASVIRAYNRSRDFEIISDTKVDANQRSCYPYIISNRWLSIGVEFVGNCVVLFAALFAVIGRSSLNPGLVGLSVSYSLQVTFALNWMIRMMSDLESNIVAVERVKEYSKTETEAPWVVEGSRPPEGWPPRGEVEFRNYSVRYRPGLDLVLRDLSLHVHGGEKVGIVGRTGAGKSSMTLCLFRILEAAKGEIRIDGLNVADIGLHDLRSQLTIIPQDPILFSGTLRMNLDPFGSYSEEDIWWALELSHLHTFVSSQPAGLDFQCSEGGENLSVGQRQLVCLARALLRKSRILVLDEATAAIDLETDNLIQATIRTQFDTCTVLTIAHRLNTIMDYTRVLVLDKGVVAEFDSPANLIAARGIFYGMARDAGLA

The IC50 is the concentration that gives 50% inhibition. Regarding `O=C(N[C@@H]1CC[C@@H](c2cccc(F)c2F)CN(CC(F)(F)F)C1=O)N1CCC(n2c(=O)[nH]c3ncccc32)CC1` [Telcagepant], the “Pivotal conventional nonclinical toxicology study liver findings” value is < 2× ALT/AST with no liver histopathology in data set [1] (6M mouse) and “no liver safety signal” in data set [2]. The exposure margin in data set [1] (6M mouse) was determined as 14 ×; in data set [2] it was 7 ×. The IC50 in data set [3] (setting [9]) is no less than 16.6 µM. For the same compound, the inhibition at 20 µM in data set [3] (human, membrane vesicles with MRP3 (vesicular transport assay), read-out: maximum inhibition at the highest concentration tested, MRP3) is less than 50%. The “inhibition of MRP3-mediated probe substrate transport” value in data set [3] is “inhibited”. Moreover, the “maximum liver safe daily dose predicted from BA-LRA” value in data set [4] is less than 600 mg. Also, the “upregulation of pathways associated with electrophilic and proteasomal stress” value (“upregulation of pathways associated” for short) in data set [4] was “upregulated pathways associated with electrophilic and proteasomal stress”. The compound also displayed a BA-LRA score in data set [4] (rat liver, 400 mg/kg/day × 4 days, evidence of transcriptional suppression) of 0.30. Moreover, the “clinical study exposure (mean)” value in data set [5] (Phase 3, 280 mg BID (2 h apart)) was “a Phase 3 clinical study exposures based on mean of 70 μM/h at dose of 280 mg BID (2 h apart)”. The “Clinical ALT > 3× ULN” value is 1.9% (5/258) ([Ho et al., 2014]) in data set [6] (140 mg BID 12 weeks, ref Ho et al., 2014); 1.9% in data set [6] (140 mg BID 12 weeks, ref Ho et al., 2014, listed as telcagepant); 3.2% in data set [6] (280 mg BID 12 weeks, ref Ho et al., 2014). Further, the “effect on oxygen consumption rate (OCR)” value in data set [7] (setting [10]) was “inhibit the HepG2 OCR in a dose-dependent manner”; in data set [7] (HepG2, 24-hour incubation) it was “A similar OCR response”. Besides, in data set [8], the Projected body burden from covalent-binding studies stood at 14600. The covalent protein binding in data set [8] came to 26 pmol equivalents/mg.

In the case of `C[C@@H]1[C@H](c2ccccc2)C[C@H](NC(=O)c2cnc3c(c2)C[C@@]2(C3)C(=O)Nc3ncccc32)C(=O)N1CC(F)(F)F` [Ubrogepant], in data set [1] (3M mouse), the “Pivotal conventional nonclinical toxicology study liver findings” value is “no liver safety signal” and the exposure margin stood at 80 ×. In data set [2], the “Pivotal conventional nonclinical toxicology study liver findings” value is given as “no liver safety signal” and the exposure margin was determined as 163 ×. The IC50 in data set [3] (setting [9]) was no less than 85.9 µM. The inhibition at 70 µM in data set [3] (human, membrane vesicles with MRP3 (vesicular transport assay), 70 µM (solubility limit), read-out: maximum inhibition at the highest concentration tested, MRP3) was less than 50%. Besides, the “inhibition of MRP3-mediated probe substrate transport” value in data set [3] is on record as “inhibited”. In addition, in data set [4], the “upregulation of pathways associated” value is on record as “did not”. Also, in data set [4] (rat liver, 7 days with 750 mg/kg), the BA-LRA response result was “No BA-LRA response”. The clinical study exposure entry in data set [5] (Phase 3, 100 mg QD) is on record as “c Phase 3 clinical study exposures based on 2 μM/h at dose of 100 mg QD”. In addition, the “ALT/AST ≥ 3-fold ULN, number of participants” value in data set [6] (100 mg QD 2 days on, 2 days placebo, alternating, 8 weeks, healthy adults, n = 256, ref Goadsby et al., 2019) is 2. In addition, the “cases of ALT or AST ≥ 3× ULN” value in data set [6] (52-week long-term extension trial, 1230 people, ref Ailani et al., 2019) is given as 20. The “effect on oxygen consumption rate (OCR)” value in data set [7] (setting [10]) is “not after a 1-hour incubation”. The “effect on oxygen consumption rate (OCR)” value in data set [7] (HepG2, 24-hour incubation) is on record as “inhibit the HepG2 OCR in a dose-dependent manner”. For the same compound, in data set [8], the “Projected body burden from covalent-binding studies” value was found to be 4600 and the covalent protein binding is reported as 23 pmol equivalents/mg.

As to `O=C(CN1C(=O)C2(CCCC2)NC[C@H]1c1cc(F)cc(F)c1)Nc1ccc2c(c1)C[C@@]1(C2)C(=O)Nc2ncccc21` [MK-3207], in data set [1] (6M mouse), the “Pivotal conventional nonclinical toxicology study liver findings” value was “no liver safety signal” and the exposure margin turned out to be 12 ×. In addition, in data set [2], the “Pivotal conventional nonclinical toxicology study liver findings” value was “no liver safety signal” and the exposure margin turned out to be 4 ×. In addition, in data set [3] (used as basolateral transporter inhibition constant, read-out: MRP3 calculated IC50), the 50% inhibitory concentration (IC50) is 49.9 µM. In addition, the “inhibition of MRP3-mediated probe substrate transport” value in data set [3] is given as “inhibited”. In data set [4], the “maximum liver safe daily dose predicted from BA-LRA” value is given as 300 mg; the “upregulation of pathways associated” value was “upregulated pathways associated with electrophilic and proteasomal stress”. For the same compound, the BA-LRA score in data set [4] (rat liver, 600 mg/kg/day × 4 days) is listed as 0.34. Further, the “clinical study exposure (mean)” value in data set [5] (Phase 2, 900 mg daily) is listed as “b Phase 2 clinical study exposures based on mean of 60 μM/h at dose of 900 mg daily; original projected daily dose was 80 mg”. For the same compound, in data set [6] (setting [11]), the “patients symptomatic with Hy’s law” value is given as 1 and the “patients with > 20-fold ALT rises” value was 3. In addition, the “Clinical ALT > 3× ULN” value in data set [6] (daily doses > 500 mg, individuals dosed for more than 1 week, most responding given 600–900 mg per day, ref Hargreaves and Olesen, 2019, Hewitt et al., 2011) is 42% (5/12) among individuals dosed for more than 1 week; most responding were given 600–900 mg per day. Also, the “ALT > 3-fold ULN after 2 weeks” value in data set [6] (daily doses of < 100 mg, ref Hargreaves and Olesen, 2019, Hewitt et al., 2011) is 1%. The “effect on oxygen consumption rate (OCR)” value in data set [7] (setting [10]) is given as “mildly inhibit cellular respiration”. Also, the “effect on oxygen consumption rate (OCR)” value in data set [7] (HepG2, 24-hour incubation) is recorded as “mildly inhibit cellular respiration”. In data set [8], the “Projected body burden from covalent-binding studies” value is 14 720 and the covalent protein binding was determined as 184 pmol equivalents/mg.
